# Data: patent US9157109B2, “Biosensors utilizing ink jet-printed biomolecule compatible sol gel inks and uses thereof” (McMaster University, priority 2009, dated 2015)
# pIC50: −log10 of the molar value. Where two headings read alike, the source gives them in different places.
# What was measured:
# β-Glucuronidase (GUS) = biological target: T1, β-Glucuronidase (GUS) (Escherichia coli, UniProt P05804); assay type: biochemical, E. coli
# T1 construct: purchased Sigma-Aldrich type VII-A (catalogue number not given)
# T1 sequence (P05804 whole entry): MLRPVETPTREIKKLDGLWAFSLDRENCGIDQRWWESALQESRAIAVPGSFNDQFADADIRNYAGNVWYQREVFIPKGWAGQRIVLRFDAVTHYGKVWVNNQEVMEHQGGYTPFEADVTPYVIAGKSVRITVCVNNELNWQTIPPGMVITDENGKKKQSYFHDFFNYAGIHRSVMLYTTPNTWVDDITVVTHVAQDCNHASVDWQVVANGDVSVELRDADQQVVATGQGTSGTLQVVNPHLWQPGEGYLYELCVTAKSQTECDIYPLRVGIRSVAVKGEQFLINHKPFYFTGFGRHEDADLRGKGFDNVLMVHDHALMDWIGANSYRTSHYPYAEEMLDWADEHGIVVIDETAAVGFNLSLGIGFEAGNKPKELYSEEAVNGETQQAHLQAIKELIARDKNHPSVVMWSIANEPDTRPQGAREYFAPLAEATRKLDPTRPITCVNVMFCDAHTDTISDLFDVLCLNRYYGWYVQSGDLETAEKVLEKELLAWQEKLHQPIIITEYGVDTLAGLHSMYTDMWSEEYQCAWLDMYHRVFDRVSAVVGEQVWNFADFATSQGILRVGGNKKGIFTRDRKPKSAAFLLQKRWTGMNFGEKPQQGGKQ
# Experimental: For this, all of these substrates were dissolved separately with sodium phosphate buffer (75 mM, pH 8). […] 20 μL of GUS (final concentration of 1 U/mL) was then added into each well and incubated for 30 min to allow color development. The absorbance at 610, 400, and 380 nm was then measured using a TECAN M1000 plate reader. A digital camera was also used to take a photograph of the plate. […] (0-10 mM), and FeCl3 (2 mM) were entrapped on paper as described previous section (FIG. 13b). The sensor was then immersed into GUS solution (1 U/mL) and removed as soon as the Gus solution has reached the sensing region through FeCl3 zone followed by a certain incubation time (5, 30, and 60 min) at room temperature.
# Experiments were conducted firstly in 96-well plate, in which GUS (final concentration of 1 U/mL) was entrapped in silica gel. […] (4 mM) and oxidizing agents (1 mM each) were then added to each well (designated for the individual oxidizing agent), and incubated for 30 min. The concentration gradient (0-30 mM) of FeCl3 was also observed in 96-well plate. The absorbance at 610 was measured using a TECAN M1000 plate reader for each experiment. A digital camera was also used to take a photograph of the plate. […] (3 mM) were entrapped on paper using biocompatible silica material in order to make the sensor strips, as described in the previous section. The performance of the sensor was then assayed by dipping it into the GUS solution (1 U/mL) to allow the enzyme solution to reach the sensing zone through FeCl3 zone via lateral flow. The color development times tested were 5, 30, and 60 min.
# [1] = biological target: T2, acetylcholinesterase (AChE) (Electrophorus electricus, UniProt O42275); settings: read-out: KM, literature value; cited from earlier work
# T2 sequence (O42275 24-633): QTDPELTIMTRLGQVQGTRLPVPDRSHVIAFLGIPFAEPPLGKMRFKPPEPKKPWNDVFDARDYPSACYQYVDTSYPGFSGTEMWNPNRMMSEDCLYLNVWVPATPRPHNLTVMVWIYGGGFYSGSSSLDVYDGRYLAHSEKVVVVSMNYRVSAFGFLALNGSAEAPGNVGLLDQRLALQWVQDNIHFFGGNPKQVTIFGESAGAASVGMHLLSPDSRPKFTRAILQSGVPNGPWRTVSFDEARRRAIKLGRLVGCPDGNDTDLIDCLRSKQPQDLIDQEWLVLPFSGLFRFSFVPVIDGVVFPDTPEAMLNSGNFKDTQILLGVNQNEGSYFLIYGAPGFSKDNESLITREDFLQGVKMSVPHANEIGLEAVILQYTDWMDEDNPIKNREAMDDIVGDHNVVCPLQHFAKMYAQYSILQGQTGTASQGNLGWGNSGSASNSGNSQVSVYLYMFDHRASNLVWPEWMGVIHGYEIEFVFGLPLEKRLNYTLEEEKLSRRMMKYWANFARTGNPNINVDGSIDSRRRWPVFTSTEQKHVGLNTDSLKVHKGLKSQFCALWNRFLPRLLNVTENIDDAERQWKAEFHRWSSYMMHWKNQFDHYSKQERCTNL
# [2] = biological target: T2, acetylcholinesterase (AChE); test: biochemical; assay type: biochemical; parameters: purchased Sigma-Aldrich; settings: for apparent saturated inhibition concentration / LOD: IPA lateral flow sensor; for detection limit (LOD): S/N=3, IPA lateral flow sensor
# Experimental: 20 μL of IPA (0˜5 mM) was then added into each well and incubated for 5 min to allow color development. The absorbance at 640 nm was then measured using a TECAN plate reader.
# The performance of the sensor under optimized conditions can be assessed in two ways: (1) directly (normal lateral flow-based chromatography) without incubating the contaminated sample, and (2) inverted lateral flow-based chromatography with incubation of the sample. For the latter case, after incubation 5 min at room temperature, the sensor was inverted again and immersed into dH2O for bringing up IPA by lateral flow action into sensing area of the strip above the liquid level.
# The sensor was then inverted again and immersed into dH2O to bring up IPA by lateral flow action into the sensing area of the strip above the liquid level. The color intensity was determined by analyzing a digital image with the ImageJ software as described above.
# [3] = biological target: T2, acetylcholinesterase (AChE); assay type: biochemical; parameters: purchased Sigma-Aldrich
# [4] = biological target: T2, acetylcholinesterase (AChE); test: Ellman colorimetric assay on ink jet printed PVAm/silica/AChE+DTNB/silica paper sensor
# Experimental: The performance can be assessed in two ways: a) by direct addition of substrate solution to sensing area, and b) by immersion into the substrate solution. […] However, in the case of direct analyte addition, only small amounts of reagent are needed (5 μL) relative to dipstick sensors (˜2 mL), reducing cost per assay. […] The color intensity of the sensing areas was quantified by obtaining a digital image (Canon A630, 8.0 MegaPixel operated in automatic mode with no flash and with the macroimaging setting on) and using ImageJ™ software to analyze the jpeg images. ImageJ™ software uses a […] color scale and for image processing the images were inverted so that areas that were originally white became black and corresponded to a color intensity of zero and while areas that were originally black became white and corresponded to […]. Based on this scale, increases in the amount of yellow color cause an increase in color intensity of the sensor strips. To account for variations in color intensity owing to differences in environmental illumination, a background subtraction (color intensity of the paper surface closest to the sensing area) was done for each data point.
# The intensity was determined by analyzing a digital image with the ImageJ software as described above.
# [5] = biological target: T2, acetylcholinesterase (AChE); assay type: biochemical; parameters: purchased Sigma-Aldrich; remark: listed apart in the source
# [6] = biological target: T2, acetylcholinesterase (AChE); assay type: biochemical; parameters: purchased Sigma-Aldrich; settings: milk and apple juice samples (pH adjusted 7-8)
molecule,measurement,setting,value
"N#CC1=C(C#N)C(=O)C(Cl)=C(Cl)C1=O [DDQ, 2,3-dichloro-5,6-dicyanobenzoquainone]",blue color development with oxidizing agent,β-Glucuronidase (GUS),poorest performance for blue color development
"O.O.O.O.O.O.[Cl-].[Cl-].[Cl-].[Fe+3] [FeCl3, FeCl3. 6H2O]",blue color development with oxidizing agent,β-Glucuronidase (GUS),strongest visual color intensity
"NC1CCCCC1.O=C(O)[C@H]1O[C@@H](Oc2c[nH]c3ccccc23)[C@H](O)[C@@H](O)[C@@H]1O [IBDG, indoxyl-β-D-glucuronide cyclohexylammonium salt]",visual color formation via GUS catalyzed hydrolysis,β-Glucuronidase (GUS),relatively faint color
"CC(=O)Oc1ccc(N=C2C=CC(=O)C=C2)cc1 [IPA, indophenyl acetate]",Km,[1],~700 µM
same,Km,[2],~1500 µM
"O=C(O)[C@H]1O[C@@H](Oc2ccc([N+](=O)[O-])cc2)[C@H](O)[C@@H](O)[C@@H]1O [PNPG, p-nitrophenyl-β-D-glucuronide]",visual color formation via GUS catalyzed hydrolysis,β-Glucuronidase (GUS); in solution for 30 min,relatively faint color
CNC(=O)Oc1cccc2c1OC(C)(C)O2 [bendiocarb],pIC50,[2],7.70
same,apparent saturated inhibition concentration,[2],around 1 μM
same,detection limit (LOD),[2],ca. 10 nM
CNC(=O)Oc1cccc2ccccc12 [carbaryl],pIC50,[2],7.30
same,apparent saturated inhibition concentration,[2],~5 µM
same,detection limit (LOD),[2],~100 nM
OCC(O)CO [glycerol],effect of additive on AChE activity in solution,[3],did not produce a decrease in AChE activity
CCOC(=O)CC(SP(=S)(OC)OC)C(=O)OCC (stereo not shown) [malathion],pIC50,[2],~8.00
same,LOD,[2],ca. 10 μM
CCOP(=O)(OCC)Oc1ccc([N+](=O)[O-])cc1 [paraoxon],detection limit (LOD),"[4]; S/N=3, Ellman paper sensor",ca. 100 nM
same,inhibition of AChE,[4]; at 100 nM inhibitor,~25%
same,LOD,[2],ca. 10 μM
same,inhibition of AChE,[5]; 1 mM paraoxon sprayed on apple and head lettuce,~50%
same,inhibition of AChE,[5]; 50 mM paraoxon sprayed on apple and head lettuce,almost complete inhibition
same,detection limit,[6],~10 nm
Triton X-100,effect of additive on AChE activity in solution,[3],No significant loss of AChE activity
aflatoxin B1 [AfB1],detection limit (LOD),[4],~30 nM
same,inhibition of AChE,[4]; 0.1 µM,~45%
same,pIC50,[4]; read-out: IC50 for inhibition of AChE,~7.00
